Assays:
CD31+ Passage 1 ECs = test: Dextran accumulation assay (fluid-phase endocytosis); format: cell-based, human; details: 10 kDa dextran, 2 h, 37° C., CHIR vs DMSO
Procedure: A fixable, Alexa Fluor 488-conjugated dextran with an average molecular weight of […] (Invitrogen) was used as a tracer to estimate total fluid-phase endocytosis. Dextran was added at 10 μM to the medium of Passage 1 cultures. Plates were incubated on rotating platforms at 37° C. or 4° C. for 2 h. Medium was removed and cells were washed once with DPBS, and then incubated with Accutase for 10 min at 37° C. Cell suspensions were passed through 40 μm cell strainers into 4× volume of DMEM/F-12 and centrifuged for 5 min, 200×g. Cells were resuspended in MACS buffer and incubated with the CD31-APC antibody (Miltenyi Biotec) for 30 min at 4° C., protected from light. Cell suspensions were brought to a volume of 5 mL with MACS buffer and centrifuged at 4° C. for 5 min, 200×g. Pellets were resuspended in DPBS supplemented with 4% paraformaldehyde and incubated for 15 min at room temperature, protected from light. Cells were centrifuged for 5 min, 200×g. Pellets were resuspended in MACS buffer and analyzed on a BD FACSCalibur flow cytometer (BD Biosciences). FlowJo software was used to gate CD31^+ cells and quantify geometric mean fluorescence intensity and coefficient of variation (CV) of dextran.

[1] = system: hPSC-derived endothelial progenitors (Passage 1 ECs); test: Immunocytochemistry of Passage 1 ECs treated with Wnt ligands, CHIR or conditioned media; format: cell-based, human
Procedure: Collagen IV (Sigma-Aldrich) was dissolved in 0.5 mg/mL acetic acid to a final concentration of 1 mg/mL. Collagen IV-coated plates were prepared by diluting a volume of this stock solution 1:100 in water, adding the resulting solution to tissue culture plates, or #1.5 glass bottom plates (Cellvis, Sunnyvale, CA) for cells intended for confocal imaging (1 mL per well for 6-well plates, 0.5 mL per well for 12-well plates, 0.25 mL per well for 24-well plates), and incubating the plates for 1 h at RT. Collagen IV coating solution was removed and EPCs obtained as described above were suspended in hECSR medium and plated at approximately 3×10^4 cells/cm^2. In some experiments, cells were suspended in NR-CM or Astro-CM. In some experiments, ligands and small molecules were added to hECSR medium: CHIR 99021 (Tocris) was used at 4 μM except where indicated; DMSO (Sigma-Aldrich) was used as a vehicle control for CHIR; Wnt3a (R&D Systems) was used at 20 ng/mL; Wnt7a (Peprotech, Rocky Hill, NJ) was used at 50 ng/mL; Wnt7b (Abnova, Tapei, Taiwan) was used at 50 ng/mL; R-spondin 1 (Rspo1; Peprotech) was used at 50 ng/mL; doxycycline was used at 1, 2, or 4 μg/mL. The hECSR medium or CM, including any ligands or small molecules, was replaced every other day until confluent (typically 6 days). We denote this time point “Passage 1.”
Immunocytochemistry was performed in 24-well plates. Cells were washed once with 500 μL DPBS and fixed with 500 μL cold (−20° C.) methanol for 5 min, except cells intended for calponin/SM22a and CD31/Ki67 detection, which were fixed with 500 μL of 4% paraformaldehyde for 15 min. Cells were washed three times with 500 μL DPBS and blocked in 150 μL DPBS supplemented with 10% goat serum (Life Technologies) for 1 h at room temperature, except cells intended for calponin/SM22α detection, which were blocked and permeabilized in DPBS supplemented with 3% BSA and 0.1% Triton X-100, or cells intended for CD31/Ki67 detection, which were blocked and permeabilized in DPBS supplemented with 5% non-fat dry milk and 0.4% Triton X-100. Primary antibodies diluted in 150 μL of the above blocking solutions (see Table 6 for antibody information) were added to cells and incubated overnight at 4° C. on a rocking platform. Cells were washed three times with 500 μL DPBS. Secondary antibodies diluted in 150 μL of the above blocking solutions (see Table 6 for antibody information) were added to cells and incubated for 1 h at room temperature on a rocking platform, protected from light. Cells were washed three times with 500 μL DPBS, followed by 5 min incubation with 500 μL DPBS plus 4 μM Hoechst 33342 (Life Technologies). Images were acquired using an Eclipse Ti2-E epifluorescence microscope (Nikon, Tokyo, Japan) with a 20× objective or an A1R-Si+ confocal microscope (Nikon) with a 100× oil objective. Confocal images were acquired with 1 μm slice spacing.
Images were analyzed using FIJI (ImageJ) software. For epifluorescence images, 5 fields (20×) were analyzed per well, with 3-4 wells per treatment condition. For quantification of cell number, EC colonies were manually outlined, and the Analyze Particles function was used to estimate the number of nuclei within the EC colonies. Nuclei outside the EC colonies were manually counted. EC purity (% EC) was calculated as the number of nuclei within EC colonies relative to total nuclei. To estimate % GLUT-1^+ ECs, cells within the EC colonies with membrane-localized GLUT-1 immunoreactivity (e.g., arrowheads in FIG. 24B) were manually counted. To estimate % Ki67^+ ECs, cells within the EC colonies with at least one nuclear-localized Ki67 punctum were manually counted. For quantification of fluorescence intensity in epifluorescence images, EC colonies were manually outlined, and the Measure function was used to obtain the mean fluorescence intensity for each image channel (fluorophore). A cell-free area of the plate was similarly quantified for background subtraction. […]

[2] = 4 μM CHIR vs control, Passage 1 ECs

## Cc1c[nH]c(-c2cnc(NCCNc3ccc(C#N)cn3)nc2-c2ccc(Cl)cc2Cl)n1 [CHIR, CHIR 99021]
CD31+ Passage 1 ECs
  distribution of dextran intensities: broadening of the distribution of dextran intensities
  geometric mean dextran signal: did not change the geometric mean dextran signal
[1]; 2 μM CHIR
  caveolin-1 expression vs DMSO: did not lead to increased caveolin-1 expression
  claudin-5 or GLUT-1 expression vs control: did not elevate claudin-5 or GLUT-1 expression
[1]; 2 μM CHIR vs 4 μM CHIR
  EC number and EC purity: less effective in increasing EC number and EC purity than 4 μM CHIR
[1]; [2]
  increase in GLUT-1 abundance: ~30 fold
  increase in average claudin-5 abundance: approximately 1.5 fold
  increase in caveolin-1: 4 fold
[1]; 4 μM CHIR, Passage 1 ECs, IMR90-4
  ECs with induced GLUT-1 expression: approximately 90%
[1]; 6 μM CHIR vs 4 μM
  EC number, EC purity, claudin-5 expression: did not improve EC number, EC purity, or claudin-5 expression
  GLUT-1 abundance: further increased GLUT-1 abundance
  caveolin-1 abundance: further increased caveolin-1 abundance
[1]; CHIR treatment initiated immediately after MACS
  increases in GLUT-1 abundance: 10- to 40 fold
[1]; Passage 1 cultures, 6 days treatment
  EC purity (proportion of ECs compared to SMLCs): increasing EC purity to a level similar to that achieved with Wnt7a
[1]; additional hPSC line (WTC11)
  EC purity, EC number, caveolin-1 and GLUT-1 expression: conserved
  claudin-5 upregulation: not apparent
[1]; confocal microscopy, Passage 1 ECs, CHIR vs DMSO
  reduction of PLVAP abundance: approximately 20%
